Data as given in paper PMC11184554, “Nature-Inspired Gallinamides Are Potent Antischistosomal Agents: Inhibition of the Cathepsin B1 Protease Target and Binding Mode Analysis” (ACS Infectious Diseases, 2024).
Values joined by “and” are separate entries in the source; they are usually repeats but may differ in a detail not shown here. Identical values can stand only once.

Legend:
[1] = system: ex vivo adult mixed sex S. mansoni; assay: Phenotypic screen with ex vivo adult schistosomes; type: cell-based; conditions: for adult severity score: scale 0 to 4
Method: In the next step, the bioactive compounds gallinamide A, 1, 6, and 9 (selected for structural analyses (see below)) were phenotypically screened against adult schistosomes. Experiments were performed at 1, 2, 5, and 10 μM with ex vivo adult mixed sex S. mansoni, and the phenotypes observed over 48 h were assigned severity scores ranging from 0 to 4 (Table 3 and Table S3).
For adult schistosomes, screens were performed in 24-well plates containing four male worms and one to two female worms per well in a final volume of 2 mL of complete Basch medium. Compounds were added at the final concentrations between 1 and 10 μM. Incubations were maintained for 48 h at 37 °C under 5% CO2. Afterward, the adult worms were collected, washed in RPMI 1640 medium, and used for soluble protein extract preparation.
A constrained nomenclature of “descriptors”[39],[42] was used to record the multiple and dynamic changes in movement, shape, and translucence that the schistosome parasite is capable of (Table S1 for NTS and Table S3 for adults). These descriptors were then converted into an ordinal “severity score” system ranging from 0 (no effect) to 4 (maximum effect), which allows for the relative comparison of compound effects.

[2] = system: recombinant SmCB1; assay: Kinetic inhibition assay with recombinant SmCB1 (k2nd); type: biochemical, S. mansoni; conditions: for decrease in inhibitory potency vs gallinamide A: ratio of k2nd values; for SmCB1 inhibition k2nd: second-order rate constant (kinact/Ki), substrate Cbz–Phe–Arg–AMC, pH 5.5, 37 °C, mean ± SE
Method: Gallinamide A and a series of its 18 derivatives were evaluated in vitro as inhibitors of SmCB1 to explore the binding specificities of the subsites in the enzyme’s active site. The gallinamide A inhibitor scaffold can be defined by positions P4 through P1′ (Schechter and Berger nomenclature[37]), which were assigned according to the binding mode analysis (see the crystallographic section below). The substituents R4, R1, and R1′ introduced on the scaffold (Table 2) are numbered according to the respective positions P4, P1, and P1′. The compounds’ second-order rate constants (k2nd) were determined using a kinetic inhibition assay with recombinant SmCB1 and the substrate, Cbz–Phe–Arg–AMC.
Inhibition measurements were performed in duplicate in 96-well microplates (100 μL assay volume) at 37 °C. SmCB1 (40 pM) was added to a mixture of the fluorogenic substrate Cbz–Phe–Arg–AMC (25 μM) and an inhibitor (0–100 μM) in 0.1 M sodium acetate, pH 5.5, containing 2.5 mM dithiothreitol and 0.01% (w/v) BRIJ 35. Substrate hydrolysis was monitored in an Infinite M1000 microplate reader (Tecan) at excitation and emission wavelengths of 360 and 465 nm, respectively, for up to 150 min. An observed first-order rate constant, kobs, was calculated at each inhibitor concentration by fitting the progress curve to the equation P = vi/kobs(1 – exp(−kobst)) + d where P is the product formation, t is the reaction time, vi is the initial velocity, and d is the offset. […] The second-order rate constant, k2nd, (and SE value) was determined by fitting the linear equation kobs = (k2nd[I])/(1 + [S]/Km), where [S] is the substrate concentration, [I] is the inhibitor concentration, and KM is the Michaelis–Menten constant. The KM value determined for SmCB1 was 25 μM. […] To determine IC50 values, SmCB1 (40 pM) was preincubated with the inhibitor (0–100 μM) for 30 min under assay conditions as described above, followed by the addition of the fluorogenic substrate Cbz–Phe–Arg–AMC (20 μM). Substrate hydrolysis was monitored for 30 min in a microplate reader as described above. The IC50 values were determined by nonlinear regression using GraFit software (Erithacus Software).

SMILES	adult phenotype descriptors ([1]; 2 h, 1 µM)	adult severity score ([1]; 2 h, 1 μM)	adult phenotype descriptors ([1]; 2 h, 2 µM)	adult severity score ([1]; 2 h, 2 μM)	adult phenotype descriptors ([1]; 2 h, 5 µM)	adult severity score ([1]; 2 h, 5 μM)	adult phenotype descriptors ([1]; 2 h, 10 µM)	adult severity score ([1]; 2 h, 10 μM)	adult phenotype descriptors ([1]; 6 h, 1 µM)	adult severity score ([1]; 6 h, 1 μM)	adult phenotype descriptors ([1]; 6 h, 2 µM)	adult severity score ([1]; 6 h, 2 μM)	adult phenotype descriptors ([1]; 6 h, 5 µM)	adult severity score ([1]; 6 h, 5 μM)	adult phenotype descriptors ([1]; 6 h, 10 µM)	adult severity score ([1]; 6 h, 10 μM)	adult phenotype descriptors ([1]; 24 h, 1 µM)	adult severity score ([1]; 24 h, 1 μM)	adult phenotype descriptors ([1]; 24 h, 2 µM)	adult severity score ([1]; 24 h, 2 μM)	also measured
CCC(C)C(C(=O)OC(CC(C)C)C(=O)NC(CC(C)C)C(=O)NC(C)C=CC(=O)N1C(=O)C=C(OC)C1CC(C)C)N(C)C (centres unmarked) [compound 1]	N	0	N	0	N	0	N	0	N	0	N	0	N	0	unc	1	N	0	N	0	adult phenotype descriptors ([1]; 24 h, 5 µM): N; adult severity score ([1]; 24 h, 5 μM): 0; adult severity score ([1]; 24 h, 10 μM): 4; adult phenotype descriptors ([1]; 48 h, 1 µM): N; adult severity score ([1]; 48 h, 1 μM): 0; adult phenotype descriptors ([1]; 48 h, 2 µM): unc, dark; adult severity score ([1]; 48 h, 2 μM): 2; adult phenotype descriptors ([1]; 48 h, 5 µM): unc, dark; adult severity score ([1]; 48 h, 5 μM): 2; adult severity score ([1]; 48 h, 10 μM): 4; decrease in inhibitory potency vs gallinamide A [2]: 2 fold; SmCB1 inhibition k2nd [2]: 3394 ± 133 M^–1·s^–1; SmCB1 inhibition k2nd ([2]; listed as Cpd.1): 3394 M^–1·s^–1
COC1=CC(=O)N(C(=O)/C=C/[C@H](C)NC(=O)[C@H](CC(C)C)NC(=O)[C@H](CC(C)C)OC(=O)[C@H](Cc2ccccc2)N(C)C)[C@H]1Cc1ccccc1 [compound 6]	N	0	N	0	unc	1	unc, on sides	2	N	0	N	0	unc	1	unc, on sides	2	N	0	N	0	adult severity score ([1]; 24 h, 5 μM): 2; adult severity score ([1]; 24 h, 10 μM): 4; adult phenotype descriptors ([1]; 48 h, 1 µM): N; adult severity score ([1]; 48 h, 1 μM): 0; adult phenotype descriptors ([1]; 48 h, 2 µM): dark; adult severity score ([1]; 48 h, 2 μM): 1; adult severity score ([1]; 48 h, 5 μM): 4; adult severity score ([1]; 48 h, 10 μM): 4; decrease in inhibitory potency vs gallinamide A [2]: 3.4 fold; SmCB1 inhibition k2nd [2]: 1930 ± 304 M^–1·s^–1; SmCB1 inhibition k2nd ([2]; listed as Cpd.6): 1930 M^–1·s^–1
CCC(C)C(C(=O)OC(CC(C)C)C(=O)NC(CC(C)C)C(=O)NC(C)C=CC(=O)N1C(=O)C=C(OC)C1Cc1ccccc1)N(C)C (centres unmarked) [compound 9]	N	0	N	0	unc	1	unc	1	N	0	N	0	unc	1	unc, on sides	2	N	0	N	0	adult phenotype descriptors ([1]; 24 h, 5 µM): unc, Dark; adult severity score ([1]; 24 h, 5 μM): 2; adult severity score ([1]; 24 h, 10 μM): 4; adult phenotype descriptors ([1]; 48 h, 1 µM): N; adult severity score ([1]; 48 h, 1 μM): 0; adult phenotype descriptors ([1]; 48 h, 2 µM): unc, dark; adult severity score ([1]; 48 h, 2 μM): 2; adult severity score ([1]; 48 h, 5 μM): 4; adult severity score ([1]; 48 h, 10 μM): 4; decrease in inhibitory potency vs gallinamide A [2]: 8.4 fold; SmCB1 inhibition k2nd [2]: 793 ± 75 M^–1·s^–1
CC[C@H](C)[C@@H](C(=O)O[C@@H](CC(C)C)C(=O)N[C@@H](CC(C)C)C(=O)N[C@@H](C)/C=C/C(=O)N1C(=O)C=C(OC)[C@@H]1C)N(C)C [gallinamide A]	N	0	N	0	N	0	N	0	N	0	N	0	N	0	N	0	N	0	N	0	adult phenotype descriptors ([1]; 24 h, 5 µM): N; adult severity score ([1]; 24 h, 5 μM): 0; adult phenotype descriptors ([1]; 24 h, 10 µM): unc; adult severity score ([1]; 24 h, 10 μM): 1; adult phenotype descriptors ([1]; 48 h, 1 µM): N; adult severity score ([1]; 48 h, 1 μM): 0; adult phenotype descriptors ([1]; 48 h, 2 µM): S, dark; adult severity score ([1]; 48 h, 2 μM): 2; adult phenotype descriptors ([1]; 48 h, 5 µM): S, dark; adult severity score ([1]; 48 h, 5 μM): 2; adult severity score ([1]; 48 h, 10 μM): 3; SmCB1 inhibition k2nd [2]: 6644 M^–1·s^–1 and 6644 ± 532 M^–1·s^–1; SmCB1 inhibition k2nd ([2]; listed as Gallinamide A): 6644 M^–1·s^–1
